Each structure is given as a SMILES string.

Assay [1] has as its system polyglutamine luciferase reporter. Description: Screening: polyglutamine luciferase reporter assay in NUGC3 cells (luminescence % of DMSO). The class given is cell-based, human. To be noted: NUGC3 cells, luminescence relative to DMSO.
The subject of a further assay is MGG8. Description: Sphere-forming ability (anchorage-independent cell proliferation), MGG8. The assay is classed as cell-based, human. The settings on record: MGG8 (high FTSJ1 expression), 1 week, 0-5000 nM; FIG. 4B. As for the experimental part: To verify whether the expression analysis of these gene clusters contributes to predicting the anti-cancer effect by the FTSJ1 inhibitors, the FTSJ1 gene was actually used as an example to analyze the anti-cancer effect of the FTSJ1 inhibitor PVZF2001 on human malignant brain tumor cell lines. Human malignant brain tumor cell lines MGG4, MGG8, MGG18, MGG23 were treated with stem cell medium (Neurobasal, B-27, N-2, 20 ng/mL EGF, 20 ng/mL bFGF) containing different concentrations (0 nm, 200 nM, 500 nM, 1000 NM, 2000 NM, 5000 nM) of PVZF2001 for 1 week, and anchorage-independent cell proliferation was evaluated based on sphere-forming ability.

Regarding `CC(C)c1cc(C(C)C)c(S(=O)(=O)CC2CC(C)(C)CC(C)(C)C2)c(C(C)C)c1` [PVZF2001], the Polyglutamine came to 41.05% in assay [1] (5 μM) and 19.01% in assay [1] (10 μM). Further, in the assay on MGG8, the “anchorage-independent cell proliferation (sphere-forming ability)” value is on record as “showed proliferation inhibition at low concentrations”.

For the origin of these results see patent US20230210834A1, “RNA METHYLTRANSFERASE INHIBITOR, SCREENING METHOD THEREFOR, ANTI-CANCER AGENT EFFICACY ASSESSMENT MARKER, AND KIT FOR EFFECTIVELY PREDICTING FTSJ1 INHIBITOR” (National University Corporation Okayama University, priority 2019, published 2023).
